Results published in patent US10765114B2, “4-amino-6-(pyridyl and 2-substitutedphenyl)-picolinates and 6-amino-2-(pyridyl and 2-substitutedphenyl)-pyrimidine-4-carboxylates and their use as herbicides” (Dow AgroSciences LLC, priority 2013, dated 2020).
Where two headings read alike, the source gives them in different places.

How the values were obtained:
[1] = tested on: Key Grass and Sedge Weeds as well as Grass Crops; assay: Post-Emergent Test II (Table 6); format: in vivo; details: post-emergence, 336 h, 14 days after application; for pest or weed control at 70 g/ha: 70 g ai/ha; for pest or weed control at 140 g/ha: 140 g ai/ha
Method in brief: (§1)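 Plants at first or second true-leaf stage, grown 7-21 days in greenhouse, were sprayed post-emergence at 187 L/ha with compounds in acetone/DMSO/water/crop oil/surfactant mixture at the high rate and ½× to 1/16× dilutions. Injury scored visually after 14 days, 0 (none) to 100% (complete kill), versus untreated plants.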

[2] = tested on: Key Broadleaf Weed and Crop Species; assay: Post-Emergent Test II (Table 5); format: in vivo; details: post-emergence, 336 h; for pest or weed control at 70 g/ha: application rate 70 (kg ai/ha; footnote: g ai/ha); for pest or weed control at 140 g/ha: application rate 140 (kg ai/ha; footnote: g ai/ha)
Method in brief: as §1

[3] = CYPSS, read-out: Visual Growth Reduction (%) 14 Days After Application CYPSS
[4] = DIGSA: crabgrass (Digitaria sanguinalis), read-out: Visual Growth Reduction (%) 14 Days After Application DIGSA
[5] = ECHSS, read-out: Visual Growth Reduction (%) 14 Days After Application ECHSS
[6] = ORYSS (crop), read-out: Visual Growth Reduction (%) 14 Days After Application ORYSS
[7] = SETFA: giant foxtail (Setaria faberi), read-out: Visual Growth Reduction (%) 14 Days After Application SETFA
[8] = SORVU: grain sorghum (Sorghum vulgare), read-out: Visual Growth Reduction (%) 14 Days After Application SORVU
[9] = TRZSS (crop), read-out: Visual Growth Reduction (%) 14 Days After Application TRZSS
[10] = ZEAMX: maize, corn (Zea mays), read-out: Visual Growth Reduction (%) 14 Days After Application ZEAMX
[11] = Abutilon theophrasti, ABUTH: velvetleaf (Abutilon theophrasti), read-out: Visual Growth Reduction (%) 14 Days After Application ABUTH
[12] = Amaranthus retroflexus, AMARE: redroot pigweed (Amaranthus retroflexus), read-out: Visual Growth Reduction (%) 14 Days After Application AMARE
[13] = Brassica napus, BRSSS: oilseed rape, canola (Brassica napus), read-out: Visual Growth Reduction (%) 14 Days After Application BRSSS
[14] = Chenopodium album, CHEAL: lambsquarters (Chenopodium album), read-out: Visual Growth Reduction (%) 14 Days After Application CHEAL
[15] = Euphorbia heterophylla, EPHHL: wild poinsettia (Euphorbia heterophylla), read-out: Visual Growth Reduction (%) 14 Days After Application EPHHL
[16] = Helianthus annuus, HELAN: sunflower (Helianthus annuus), read-out: Visual Growth Reduction (%) 14 Days After Application HELAN
[17] = Viola tricolor, VIOTR: wild pansy (Viola tricolor), read-out: Visual Growth Reduction (%) 14 Days After Application VIOTR

Which results are given for `COC(=O)c1nc(-c2ccc(C(F)(F)F)nc2)cc(N)c1Cl` [Compound 4]?
pest or weed control at 70 g/ha [1, 3]: 60 to 74%; pest or weed control at 140 g/ha [1, 3]: 60 to 74%; pest or weed control at 70 g/ha [1, 4]: 0 to 29%; pest or weed control at 140 g/ha [1, 4]: 0 to 29%; pest or weed control at 70 g/ha [1, 5]: 30 to 44%; pest or weed control at 140 g/ha [1, 5]: 75 to 84%; pest or weed control at 70 g/ha [1, 6]: 0 to 29%; pest or weed control at 140 g/ha [1, 6]: 0 to 29%; pest or weed control at 70 g/ha [1, 7]: 0 to 29%; pest or weed control at 140 g/ha [1, 7]: 0 to 29%; pest or weed control at 70 g/ha [1, 8]: 45 to 59%; pest or weed control at 140 g/ha [1, 8]: 60 to 74%; pest or weed control at 70 g/ha [1, 9]: 0 to 29%; pest or weed control at 140 g/ha [1, 9]: 0 to 29%; pest or weed control at 70 g/ha [1, 10]: 0 to 29%; pest or weed control at 140 g/ha [1, 10]: 0 to 29%; pest or weed control at 70 g/ha [2, 11]: 75 to 84%; pest or weed control at 140 g/ha [2, 11]: 75 to 84%; pest or weed control at 70 g/ha [2, 12]: 85 to 94%; pest or weed control at 140 g/ha [2, 12]: 95 to 100%; pest or weed control at 70 g/ha [2, 13]: 30 to 44%; pest or weed control at 140 g/ha [2, 13]: 60 to 74%; pest or weed control at 70 g/ha [2, 14]: 75 to 84%; pest or weed control at 140 g/ha [2, 14]: 85 to 94%; pest or weed control at 70 g/ha [2, 15]: 75 to 84%; pest or weed control at 140 g/ha [2, 15]: 85 to 94%; pest or weed control at 70 g/ha [2, 16]: 60 to 74%; pest or weed control at 140 g/ha [2, 16]: 75 to 84%; pest or weed control at 70 g/ha [2, 17]: 0 to 29%; pest or weed control at 140 g/ha [2, 17]: 0 to 29%

With `Nc1cc(-c2ccc(Cl)c(F)c2CO)nc(C(=O)O)c1Cl` [Compound 11, 4-Amino-3-chloro-6-(4-chloro-3-fluoro-2-(hydroxymethyl)phenyl)picolinic acid] as the compound, how does the pest or weed control at 70 g/ha [1, 3] read?
The pest or weed control at 70 g/ha was 0 to 29%.

And the pest or weed control at 140 g/ha [1, 3]?
Its pest or weed control at 140 g/ha is 0 to 29%.

What about the pest or weed control at 70 g/ha [1, 4] of the same compound?
Its pest or weed control at 70 g/ha is 0 to 29%.

What about the pest or weed control at 140 g/ha [1, 4] of the same compound?
Its pest or weed control at 140 g/ha is 0 to 29%.

And the pest or weed control at 70 g/ha [1, 5]?
Its pest or weed control at 70 g/ha is 0 to 29%.

And the pest or weed control at 140 g/ha [1, 5]?
Its pest or weed control at 140 g/ha is 0 to 29%.

And the pest or weed control at 70 g/ha [1, 6]?
The pest or weed control at 70 g/ha was 0 to 29%.

What about the pest or weed control at 140 g/ha [1, 6] of the same compound?
The pest or weed control at 140 g/ha was 0 to 29%.

And the pest or weed control at 70 g/ha [1, 7]?
Its pest or weed control at 70 g/ha is 0 to 29%.

What about the pest or weed control at 140 g/ha [1, 7] of the same compound?
Its pest or weed control at 140 g/ha is 0 to 29%.

What about the pest or weed control at 70 g/ha [1, 8] of the same compound?
Its pest or weed control at 70 g/ha is 0 to 29%.

And the pest or weed control at 140 g/ha [1, 8]?
Its pest or weed control at 140 g/ha is 0 to 29%.

And the pest or weed control at 70 g/ha [1, 9]?
Its pest or weed control at 70 g/ha is 0 to 29%.

And the pest or weed control at 140 g/ha [1, 9]?
Its pest or weed control at 140 g/ha is 0 to 29%.

And the pest or weed control at 70 g/ha [1, 10]?
The pest or weed control at 70 g/ha was 0 to 29%.

And the pest or weed control at 140 g/ha [1, 10]?
The pest or weed control at 140 g/ha was 0 to 29%.

And the pest or weed control at 70 g/ha [2, 11]?
Its pest or weed control at 70 g/ha is 0 to 29%.

And the pest or weed control at 140 g/ha [2, 11]?
The pest or weed control at 140 g/ha was 0 to 29%.

What about the pest or weed control at 70 g/ha [2, 12] of the same compound?
Its pest or weed control at 70 g/ha is 0 to 29%.

And the pest or weed control at 140 g/ha [2, 12]?
Its pest or weed control at 140 g/ha is 0 to 29%.

What about the pest or weed control at 70 g/ha [2, 13] of the same compound?
Its pest or weed control at 70 g/ha is 0 to 29%.

What about the pest or weed control at 140 g/ha [2, 13] of the same compound?
Its pest or weed control at 140 g/ha is 0 to 29%.

What about the pest or weed control at 70 g/ha [2, 14] of the same compound?
The pest or weed control at 70 g/ha was 0 to 29%.

What about the pest or weed control at 140 g/ha [2, 14] of the same compound?
The pest or weed control at 140 g/ha was 75 to 84%.

And the pest or weed control at 70 g/ha [2, 15]?
The pest or weed control at 70 g/ha was 0 to 29%.

What about the pest or weed control at 140 g/ha [2, 15] of the same compound?
Its pest or weed control at 140 g/ha is 0 to 29%.

And the pest or weed control at 70 g/ha [2, 16]?
The pest or weed control at 70 g/ha was 0 to 29%.

What about the pest or weed control at 140 g/ha [2, 16] of the same compound?
The pest or weed control at 140 g/ha was 0 to 29%.

And the pest or weed control at 70 g/ha [2, 17]?
Its pest or weed control at 70 g/ha is 0 to 29%.

What about the pest or weed control at 140 g/ha [2, 17] of the same compound?
Its pest or weed control at 140 g/ha is 0 to 29%.

Which pest or weed control at 70 g/ha [1, 3] does the source give for `COC(=O)c1nc(-c2ccc(Cl)c(F)c2CF)cc(N)c1Cl` [Compound 78, methyl 4-amino-3-chloro-6-(4-chloro-3-fluoro-2-(fluoromethyl)phenyl)picolinate] here?
The pest or weed control at 70 g/ha was 45 to 59%.

What about the pest or weed control at 140 g/ha [1, 3] of the same compound?
The pest or weed control at 140 g/ha was 45 to 59%.

What about the pest or weed control at 70 g/ha [1, 4] of the same compound?
The pest or weed control at 70 g/ha was 0 to 29%.

What about the pest or weed control at 140 g/ha [1, 4] of the same compound?
The pest or weed control at 140 g/ha was 0 to 29%.

What about the pest or weed control at 70 g/ha [1, 5] of the same compound?
The pest or weed control at 70 g/ha was 0 to 29%.

What about the pest or weed control at 140 g/ha [1, 5] of the same compound?
The pest or weed control at 140 g/ha was 0 to 29%.

What about the pest or weed control at 70 g/ha [1, 6] of the same compound?
Its pest or weed control at 70 g/ha is 0 to 29%.

And the pest or weed control at 140 g/ha [1, 6]?
The pest or weed control at 140 g/ha was 0 to 29%.

What about the pest or weed control at 70 g/ha [1, 7] of the same compound?
Its pest or weed control at 70 g/ha is 0 to 29%.

What about the pest or weed control at 140 g/ha [1, 7] of the same compound?
The pest or weed control at 140 g/ha was 0 to 29%.

What about the pest or weed control at 70 g/ha [1, 8] of the same compound?
Its pest or weed control at 70 g/ha is 0 to 29%.

And the pest or weed control at 140 g/ha [1, 8]?
Its pest or weed control at 140 g/ha is 0 to 29%.

What about the pest or weed control at 70 g/ha [1, 9] of the same compound?
Its pest or weed control at 70 g/ha is 0 to 29%.

And the pest or weed control at 140 g/ha [1, 9]?
Its pest or weed control at 140 g/ha is 0 to 29%.

What about the pest or weed control at 70 g/ha [1, 10] of the same compound?
Its pest or weed control at 70 g/ha is 0 to 29%.

And the pest or weed control at 140 g/ha [1, 10]?
The pest or weed control at 140 g/ha was 0 to 29%.

What about the pest or weed control at 70 g/ha [2, 11] of the same compound?
The pest or weed control at 70 g/ha was 95 to 100%.

What about the pest or weed control at 140 g/ha [2, 11] of the same compound?
The pest or weed control at 140 g/ha was 95 to 100%.

What about the pest or weed control at 70 g/ha [2, 12] of the same compound?
The pest or weed control at 70 g/ha was 95 to 100%.

What about the pest or weed control at 140 g/ha [2, 12] of the same compound?
The pest or weed control at 140 g/ha was 95 to 100%.

What about the pest or weed control at 70 g/ha [2, 13] of the same compound?
Its pest or weed control at 70 g/ha is 95 to 100%.

And the pest or weed control at 140 g/ha [2, 13]?
The pest or weed control at 140 g/ha was 95 to 100%.

What about the pest or weed control at 70 g/ha [2, 14] of the same compound?
Its pest or weed control at 70 g/ha is 95 to 100%.

What about the pest or weed control at 140 g/ha [2, 14] of the same compound?
The pest or weed control at 140 g/ha was 95 to 100%.

What about the pest or weed control at 70 g/ha [2, 15] of the same compound?
Its pest or weed control at 70 g/ha is 0 to 29%.

What about the pest or weed control at 140 g/ha [2, 15] of the same compound?
Its pest or weed control at 140 g/ha is 0 to 29%.

What about the pest or weed control at 70 g/ha [2, 16] of the same compound?
The pest or weed control at 70 g/ha was 85 to 94%.

What about the pest or weed control at 140 g/ha [2, 16] of the same compound?
The pest or weed control at 140 g/ha was 85 to 94%.

And the pest or weed control at 70 g/ha [2, 17]?
The pest or weed control at 70 g/ha was 0 to 29%.

What about the pest or weed control at 140 g/ha [2, 17] of the same compound?
The pest or weed control at 140 g/ha was 0 to 29%.
